# Source: patent US10336762B2 (priority 2017, dated 2019)
# Where two headings read alike, the source gives them in different places.
# Experiments:
# TNFα = experiment: cells; assay type: cell-based, human; settings: LPS-stimulated human monocytes, read-out: EC50 TNF
# IRAK4 enzyme = IRAK4 enzyme (Homo sapiens (Human), UniProt Q9NWZ3); experiment: biochemical; assay type: biochemical; settings: IRAK4 enzyme, 500 μM ATP
# [1] = Homo sapiens, Monocyte, TNFα by TR-FRET
# [2] = Homo sapiens, Monocyte, TNFα content
# Chain of IRAK4 enzyme (Q9NWZ3 whole entry): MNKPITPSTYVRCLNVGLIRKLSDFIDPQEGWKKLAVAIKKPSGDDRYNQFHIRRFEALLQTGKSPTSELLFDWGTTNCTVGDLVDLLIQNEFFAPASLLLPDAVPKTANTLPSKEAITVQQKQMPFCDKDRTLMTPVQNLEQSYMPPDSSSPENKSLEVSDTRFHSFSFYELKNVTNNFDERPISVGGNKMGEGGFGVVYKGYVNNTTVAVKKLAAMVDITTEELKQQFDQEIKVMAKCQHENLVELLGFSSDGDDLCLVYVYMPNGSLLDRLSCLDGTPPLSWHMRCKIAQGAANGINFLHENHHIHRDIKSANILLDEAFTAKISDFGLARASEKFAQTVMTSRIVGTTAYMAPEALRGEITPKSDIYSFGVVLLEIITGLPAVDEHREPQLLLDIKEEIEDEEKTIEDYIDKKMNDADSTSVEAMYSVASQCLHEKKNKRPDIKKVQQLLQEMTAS
Structure (SMILES),EC50 (TNFα; [1]),IC50 (IRAK4 enzyme; TR-FRET),EC50 (TNFα; [2]),IC50 (IRAK4 enzyme; TR-FRET (HTRF)),EC50 (TNFα; TNFα content)
"CC(C)(O)[C@H](F)CNC(=O)c1cnc(-c2ccc3cc(C#N)cnn23)cc1Nc1ccc(C(C)(C)N2CCOC2=O)cc1 [Example 874, (R)-6-(3-cyanopyrrolo[1,2-b]pyridazin-7-yl)-N-(2-fluoro-3-hydroxy-3-methylbutyl)-4-((4-(2-(2-oxooxazolidin-3-yl)propan-2-yl)phenyl)amino)nicotinamide]",0.013 µM,< 0.001 µM,,,
"CC(C)(CCNC(=O)c1cnc(-c2ccc3cc(C#N)cnn23)cc1NC12CCC(O)(CC1)CC2)NS(C)(=O)=O [Example 342, 6-(3-cyanopyrrolo[1,2-b]pyridazin-7-yl)-4-((4-hydroxybicyclo[2.2.2]octan-1-yl)amino)-N-(3-methyl-3-(methyl-sulfonamido)butyl) nicotinamide]",,0.001 µM,0.083 µM,,
"CC(C)(O)[C@H](F)CNC(=O)c1cnc(-c2ccc3cc(C#N)cnn23)cc1N[C@]1(C)CC[C@H](O)CC1 [Example 432, 6-(3-cyanopyrrolo[1,2-b]pyridazin-7-yl)-N-((R)-2-fluoro-3-hydroxy-3-methylbutyl)-4-(((1s,4S)-4-hydroxy-1-methylcyclohexyl)amino) nicotinamide]",,,0.037 µM,< 0.001 µM,
"CC(C)(O)[C@H](F)CNC(=O)c1cnc(-c2ccc3cc(C#N)cnn23)cc1N[C@H]1CC[C@H](NC(=O)OC2CCC2)CC1 [Example 288, cyclobutyl ((1R,4r)-4-((2-(3-cyanopyrrolo[1,2-b]pyridazin-7-yl)-5-(((R)-2-fluoro-3-hydroxy-3-methylbutyl)carbamoyl)pyridin-4-yl)amino)cyclohexyl)carbamate]",,0.001 µM,0.054 µM,,
"Cc1n[nH]c2cc(Nc3cc(-c4ccc5cc(C#N)cnn45)ncc3C(=O)NC[C@@H](F)C(C)(C)O)ccc12 [Example 660, (R)-6-(3-cyanopyrrolo[1,2-b]pyridazin-7-yl)-N-(2-fluoro-3-hydroxy-3-methylbutyl)-4-((3-methyl-1H-indazol-6-yl)amino) nicotinamide]",,,0.064 µM,0.001 µM,
"COCC1CCC1CNc1cc(-c2ccc3cc(C#N)cnn23)ncc1C(=O)NC[C@@H](F)C(C)(C)O (stereo partly drawn) [Example 713, 6-(3-cyanopyrrolo[1,2-b]pyridazin-7-yl)-N-((R)-2-fluoro-3-hydroxy-3-methyl-butyl)-4-(((2-(methoxy-methyl)cyclobutyl)methyl)amino)nicotinamide]",,,0.264 µM,0.002 µM,
"COC(=O)N[C@H]1C[C@@H](CNC(=O)c2cnc(-c3ccc4cc(C#N)cnn34)cc2NC23CCC(O)(CC2)CC3)C1 [Example 731, methyl ((1s,3s)-3-((6-(3-cyanopyrrolo[1,2-b]pyridazin-7-yl)-4-((4-hydroxybicyclo[2.2.2]octan-1-yl)amino)nicotin-amido)methyl)cyclobutyl) carbamate]",,,0.059 µM,< 0.001 µM,
"N#Cc1cnn2c(-c3cc(NC45CCC(O)(CC4)CC5)c(C(=O)NCCO)cn3)ccc2c1 [Example 745, 6-(3-cyanopyrrolo[1,2-b]pyridazin-7-yl)-4-((4-hydroxybicyclo[2.2.2]octan-1-yl)amino)-N-(2-hydroxyethyl)nicotinamide]",,,0.087 µM,< 0.001 µM,
"CC(C)(O)[C@H](F)CNC(=O)c1cnc(-c2ccc3cc(C#N)cnn23)cc1Nc1ccc(N2CCC2)nc1 [Example 675, (R)-4-((6-(azetidin-1-yl)pyridin-3-yl)amino)-6-(3-cyanopyrrolo[1,2-b]pyridazin-7-yl)-N-(2-fluoro-3-hydroxy-3-methylbutyl)nicotinamide]",,,0.023 µM,< 0.001 µM,
"COC(=O)C1(NC(=O)c2cnc(-c3ccc4cc(C#N)cnn34)cc2NC23CCC(O)(CC2)CC3)CC1 [Example 949, methyl 1-(6-(3-cyano-pyrrolo[1,2-b]pyridazin-7-yl)-4-((4-hydroxy-bicyclo[2.2.2]octan-1-yl)amino)nicotinamido) cyclopropane-1-carboxylate]",0.062 µM,0.001 µM,,,
"CC(C)(O)[C@H](F)CNC(=O)c1cnc(-c2ccc3cc(C#N)cnn23)cc1N[C@H]1C[C@H](Cn2ccccc2=O)C1 [Example 729, 6-(3-cyanopyrrolo[1,2-b]pyridazin-7-yl)-N-((R)-2-fluoro-3-hydroxy-3-methylbutyl)-4-(((1r,3R)-3-((2-oxopyridin-1(2H)-yl)methyl)cyclobutyl)amino)nicotinamide]",,,0.058 µM,0.001 µM,
"CC(C)Nc1cc(-c2ccc3cc(C#N)cnn23)ncc1C(=O)N[C@H]1CC[C@H](N)CC1 [Example 12, N-((1r,4r)-4-aminocyclohexyl)-6-(3-cyanopyrrolo[1,2-b]pyridazin-7-yl)-4-(isopropylamino)nicotinamide]",,0.002 µM,0.097 µM,,
"CC1(O)CN(C(=O)C23CCC(Nc4cc(-c5ccc6cc(C#N)cnn56)ncc4C(=O)NC[C@@H](F)C(C)(C)O)(CC2)CC3)C1 [Example 159, (R)-6-(3-cyanopyrrolo[1,2-b]pyridazin-7-yl)-N-(2-fluoro-3-hydroxy-3-methylbutyl)-4-((4-(3-hydroxy-3-methylazetidine-1-carbonyl)bicyclo[2.2.2]octan-1-yl)amino)nicotinamide]",,0.001 µM,0.184 µM,,
"COCCNC(=O)CNC(=O)c1cnc(-c2ccc3cc(C#N)cnn23)cc1NC12CCC(O)(CC1)CC2 [Example 786, 6-(3-cyanopyrrolo[1,2-b]pyridazin-7-yl)-4-((4-hydroxybicyclo[2.2.2]octan-1-yl)amino)-N-(2-((2-methoxyethyl)amino)-2-oxoethyl)nicotinamide]",,,0.323 µM,0.002 µM,
"CN(C)C(=O)O[C@H]1C[C@H](Nc2cc(-c3ccc4cc(C#N)cnn34)ncc2C(=O)NC[C@@H](F)C(C)(C)O)C1 [Example 161, (1R,3r)-3-((2-(3-cyano-pyrrolo[1,2-b]pyridazin-7-yl)-5-(((R)-2-fluoro-3-hydroxy-3-methylbutyl)carbamoyl)pyridin-4-yl)amino)cyclobutyl dimethylcarbamate]",,1 µM,> 10 µM,,
"CC(C)(O)[C@H](F)CNC(=O)c1cnc(-c2ccc3cc(C#N)cnn23)cc1NC1CC2CCC(C1)N2S(C)(=O)=O (stereo partly drawn) [Example 29, 6-(3-cyanopyrrolo[1,2-b]pyridazin-7-yl)-N-((R)-2-fluoro-3-hydroxy-3-methylbutyl)-4-(((1R,3s,5S)-8-(methylsulfonyl)-8-azabicyclo[3.2.1]octan-3-yl)amino)nicotinamide]",,< 0.001 µM,,,0.1 µM
"CN(C)S(=O)(=O)N1CCC(Nc2cc(-c3ccc4cc(C#N)cnn34)ncc2C(=O)NC[C@@H](F)C(C)(C)O)CC1 [Example 244, (R)-6-(3-cyanopyrrolo[1,2-b]pyridazin-7-yl)-4-((1-(N,N-dimethylsulfamoyl)piperidin-4-yl)amino)-N-(2-fluoro-3-hydroxy-3-methylbutyl) nicotinamide]",,0.001 µM,0.102 µM,,
"CC(C)(O)[C@H](F)CNC(=O)c1cnc(-c2ccc3cc(C#N)cnn23)cc1N[C@@]12CC[C@@H](C1)[C@@H](O)C2 [Example 504, 6-(3-cyanopyrrolo[1,2-b]pyridazin-7-yl)-N-((R)-2-fluoro-3-hydroxy-3-methylbutyl)-4-(((1S,3S,4S)-3-hydroxybicyclo[2.2.1]heptan-1-yl)amino) nicotinamide]",,,0.014 µM,< 0.001 µM,
